The source of these data is patent publication US20220000818A1, “COMPOSITIONS FOR USE IN PREVENTING ACNE” (Nogra Pharma Limited, priority 2019, published 2022).

SMILES strings stand for the structures.

Common to all, as to format: cell-based, human
For data set [1], the system named is pAkt and pS6 (PI3K/Akt pathway) in SZ95 sebocytes. The data set is described as follows: Western blot of insulin-induced pAkt and pS6 in SZ95 sebocytes. To be noted: SZ95-SF cells, 0.1 μM insulin and 1 mM NAC-GED0507, 24 hours. How it is done: (§1) Immortalized human SZ95 sebocytes (Zouboulis et al., 1999), showing morphologic, phenotypic, and functional characteristics of normal human sebocytes, were cultured in 5% CO2 at 37° C. in Sebomed basal medium, 1% L-glutamine, 1% penicillin/streptomycin, 5 ng/mL recombinant human epidermal growth factor, and 1 mM CaCl2, with or without 10% FBS supplement. All experiments were performed at least in triplicate.
(§2) For protein extraction, cells were lysed in RIPA buffer (50 mM Tris-HCl pH 7.4, 1% Nonidet P40, 0.25% deoxycholate, 150 mM NaCl, 1 mM EDTA, 1 mM PMSF, 1 mM Na3VO4, 5 mM NaF), supplemented with a protease inhibitor cocktail (Roche, Mannheim, Germany), for 30 minutes at 4° C., then sonicated. Total cell lysates were clarified by centrifugation at 12,000 rpm for 10 minutes at 4° C. and then stored at −80° C. until analysis.
(§3) Protein levels were measured by spectrophotometry, and protein (50 μg) was loaded and resolved using an acrylamide SDS-PAGE gel, and finally transferred onto a nitrocellulose membrane (Amersham Biosciences, Milan, Italy). Protein transfer efficiency was evaluated by Ponceau S staining (Sigma-Aldrich). […] Protein levels were quantified by measuring optical density of specific bands using a UVI-TEC System (Eppendorf, Hamburg, Germany). […]
Background: Immunoblotting shows a protein as a band on a membrane.

Data set [2] concerns IL-6 release from SZ95 sebocytes. The data set can be described thus: IL-6 release ELISA in SZ95 sebocytes. The conditions noted are these: all sebocytes (SZ95-SF and SZ95-S), 0.1 μM insulin. How it is done: as §1
SZ95 culture supernatants were collected and centrifuged to remove cell debris. Aliquots were then stored at −80° C. until use. IL-6 protein level was determined by ELISA (Life Technologies, Invitrogen; Milan, Italy), and normalized for cell number. In stratum corneum specimens, concentration of IL-1α was assessed by ELISA (Life Technologies, Invitrogen, Milan, Italy), and normalized against the total amount of soluble protein. Levels of IL-1α were reported as pg/pg protein. The results represent the average of three independent experiments performed in triplicate.
To determine the effect of insulin exposure on inflammatory cytokine release in sebocytes at different stages of differentiation, IL-6 release was measured by ELISA following exposure of SZ95-SF and SZ95-S sebocytes to 0.1 μM insulin.
On the technique in general: ELISA stands for enzyme-linked immunosorbent assay.

Data set [3] deals with SZ95 sebocytes. The data set is described as follows: LC-MS analysis of 5-HETE and 15-HETE in SZ95 cell media. The conditions noted are these: SZ95-SF and SZ95-S sebocytes, insulin and NAC-GED0507. How it is done:
as §1
Levels of the polyunsaturated fatty acids 5-hydroxyeicosatetraenoic acid (5-HETE) and 15-hydroxyeicosatetraenoic acid (15-HETE) in cell media were measured by HPLC\MS\MS. Chromatographic separation was carried out using an Agilent Technologies 1200 HPLC Liquid Chromatography System (Palo Alto, Calif., USA) with a Symmetry C18 column ([…], 100 mm×2.1 mm; Waters, Milford, Mass., USA) as previously reported (Furugen A et al., (2015) “Simultaneous quantification of leukotrienes and hydroxyeicosatrienoic acids in cell culture medium using liquid chromatography/tandem mass spectrometry” Biomed Chromatogr 29:1084-1093). […] For each compound to be quantified, an internal standard was selected and a linear curve was generated where the ratio of analyte standard peak area to internal standard peak area was plotted against the amount of analyte standard. The results were calculated as nM/106 cells and then reported as % variation vs control values. […]

Data set [4] relates to PPARγ and EMA protein in SZ95-SF cells. The data set can be described thus: Western blot of PPARγ and EMA (sebocyte differentiation) in SZ95-SF cells. The conditions noted are these: 24 hours. The protocol: as §1, §2, §3
The test system of data set [5] is SREBP-1, FAS, FADS-2, SCD-1, DGAT1 mRNA in SZ95 sebocytes. The data set is described as follows: Real-time RT-PCR of lipidogenic gene mRNA in SZ95 sebocytes. The protocol: as §1
Total RNA was isolated using the Aurum™ Total RNA Mini kit (Bio-Rad Laboratories Srl; Milan, Italy). Total RNA quantity, purity, and the absence of ribonuclease activity were assessed by OD260/280 absorbance measurements and by agarose gel electrophoresis. Total RNA samples were stored at −80° C. until use. Following DNAse I treatment, cDNA was synthesized using a mix of oligo-dT and random primers and RevertAid™ First Strand cDNA synthesis kit (Thermo Fisher Scientific; Monza, Italy). Quantitative real time RT-PCR was performed in a total volume of 15 μL with SYBR Green PCR Master Mix (Bio-Rad Laboratories Srl) and 200 nM concentration of each primer.
Reactions were carried out in triplicate using an iQ™ 5 iCycler supplied with the iQ™ 5 Real-Time Detection System (Bio-Rad Laboratories; Hercules, Calif., USA). Melt curve analysis was performed to confirm the specificity of the amplified products. Expression of mRNA species was normalized to the expression of GAPDH mRNA by the change in the Δ cycle threshold (ΔCt) method and calculated based on 2^−Δct.
SZ95-S and SZ95-SF sebocytes were cultured for an additional 24 hours in the presence of 0.1 μM insulin and/or 1 mM NAC-GED0507.

Data set [6] concerns SZ95 sebocytes. The data set is described as follows: Metabolic activity and cell viability of SZ95 sebocytes. The conditions noted are these: SZ95-S or SZ95-SF sebocytes exposed to NAC-GED0507. How it is done: as §1
SZ95-SF and SZ95-S sebocytes were cultured for an additional 24 hours in the presence of 0.1 μM insulin and/or 1 mM of the PPARγ modulator N-acetyl-(S)-3-(4′-aminophenyl)-2-methoxypropionic acid (“NAC-GED0507”).

The next data set relates to lipoxygenase (LOX). The data set can be described thus: Lipoxygenase activity assay in SZ95 sebocyte lysates. To be noted: SZ95-S and SZ95-SF cells, 0.1 μM insulin and NAC-GED0507. How it is done: Immortalized human SZ95 sebocytes (Zouboulis et al., 1999), showing morphologic, phenotypic, and functional characteristics of normal human sebocytes, were cultured in 5% CO2 at 37° C. in Sebomed basal medium, 1% L-glutamine, 1% penicillin/streptomycin, 5 ng/mL recombinant human epidermal growth factor, and 1 mM CaCl2, with or without 10% FBS supplement. All experiments were performed at least in triplicate. Lipoxygenase (LOX) activity was evaluated spectrophotometrically by monitoring the conversion of the LOX substrate linoleic acid (LA) to the corresponding hydroperoxy fatty acid. SZ95 sebocytes were lysed in 50 mM Tris/HCl buffer (pH 7.4) (Merck; Darmstadt, Germany) by repeated freezing in liquid nitrogen and thawing. Protein content was determined by Bradford assay using bovine serum albumin as the protein standard. Aliquots of supernatants containing 50 μg of protein were added to Tris/HCl buffer containing 200 μM LA in a final volume of 1 mL. All reactions were performed in 1-cm path length quartz cuvettes. The absorbance at 234 nm was recorded at room temperature for 10 minutes using a Lambda 25 UV/Vis spectrophotometer (Perkin-Elmer, UK). SZ95 sebocytes cultured under serum and serum-free conditions were analyzed for LOX expression. SZ95-SF sebocytes expressed slightly higher basal levels of LOX compared to SZ95-S sebocytes (data not shown). […]

In data set [7] the test system is SZ95 sebocytes. The data set can be described thus: GC-MS analysis of fatty acid production (lipogenesis) in SZ95 sebocytes. The conditions noted are these: insulin and NAC-GED0507, 48 hours or 72 hours. How it is done:
as §1
Lipids were extracted from SZ95 sebocytes using a modified version of the protocol described in Bligh E G and Dyer W J, J Biochem Physiol, 1959. Lipids were extracted with chloroform: methanol (2:1) solution (2×1 mL) after the addition of butylhydroxytoluene to prevent oxidation of oxygen sensitive compounds. 5 μg of methylated tricosanoic acid was added as internal standard to control the analytical performance and to calculate the relative abundance of the fatty acids detected. Organic layers were collected and evaporated under nitrogen. Dried lipid extract was dissolved in 100 μL acetone/methanol/isopropanol (40:40:20) solution and 20 μL were used for the analysis of bound fatty acids (FA).
Bound fatty acids (FA) were analyzed as FA methyl esters (FAME) obtained after derivatization. For simultaneous saponification and methylation of bound FA, 250 μL KOH solution (0.5 M) in anhydrous methanol was added to the dried extract and incubated at 37° C. for 20 minutes with constant shaking. 0.5 mL HCl (0.25 M) was added to neutralize the alkaline reaction mixture. After vortexing, 0.25 mL K2SO4 (6.7%) and 1 mL hexane:isopropanol (3:2 v/v) solution containing 0.0025% BHT were added and vortexed. After centrifugation, the lipid enriched upper phase was transferred to an Eppendorf tube and evaporated under nitrogen. The dried FAME extract was dissolved in 50 μL n-hexane and analyzed by GC-MS to establish FA profiles in the lipid extracts (Thermo-Finnigan, Waltham, Mass., USA). Chromatographic separation was carried out on a HP-FFAP capillary column (Agilent Technologies, Santa Clara, Calif., USA; crosslinked FFAP, length 50 m, film thickness 0.52 μm). Helium was used as the carrier gas. The initial GC oven temperature was 40° C. and was linearly ramped up to 240° C. at 8° C./min. The total run time was 60 min. The injector and the GC-MS transfer lines were kept at 230° C. and 250° C., respectively. Total ion chromatograms (TIC) were acquired, and areas of single peaks, corresponding to the FAME, were integrated with the qualitative analysis software. Identity of the detected FAME was verified by comparison with authentic standards and matched with library spectral data.
SZ95-SF and SZ95-S sebocytes were also cultured for 48 hours or 72 hours in the presence of insulin and NAC-GED0507.

The mark [8] stands for this setting: SZ95-SF cells, pre-treatment with NAC-GED0507.

For the molecule `CO[C@@H](Cc1ccc(NC(C)=O)cc1)C(=O)O` [NAC-GED0507, N-acetyl-(S)-3-(4′-aminophenyl)-2-methoxypropionic acid], in data set [1], the “insulin-induced pAkt” value is reported as “significant decrease” and the “insulin-induced pS6” value is reported as “significant decrease”. Moreover, the IL-6 cytokine release result in data set [2] was “significantly reduced”. In addition, in the data set with SZ95 sebocytes [3], the “increase in 5-HETE stimulated by insulin” value is on record as “countered the increase” and the “increase in 15-HETE stimulated by insulin” value is recorded as “countered the increase”. Besides, in data set [4], the EMA protein expression entry is given as “increase” and the PPARγ protein expression result was “increase”. For the same molecule, in data set [5] (0.1 μM insulin and 1 mM NAC-GED0507, 24 hours), the “up-regulation of lipidogenic genes (SREBP-1, FAS, FADS-2, SCD-1 mRNA) observed with insulin alone” value was “significantly inhibited”. The “DGAT1 mRNA levels (decreased by insulin)” value in data set [5] (SZ95-SF cells, 0.1 μM insulin) is listed as “countered the effects of insulin exposure”. In data set [5] (setting [8]), the “insulin-stimulated FADS2 mRNA expression” value is on record as “reduced the effect”, the “insulin-stimulated SCD1 mRNA expression” value is on record as “reduced the effect” and the “insulin-stimulated SREBP1 mRNA expression” value was “reduced the effect”. Besides, in the data set on SZ95 sebocytes [6], the cell viability entry was “No significant changes” and the metabolic activity entry was “No significant changes”. The “insulin-induced increase in LOX activity” value in the data set on lipoxygenase (LOX) is “inhibited”. Also, in the data set with SZ95 sebocytes [7] (SZ95-SF sebocytes), the “production of mono-unsaturated fatty acids in response to insulin” value is listed as “significantly inhibited”, the “production of poly-unsaturated fatty acids in response to insulin” value is given as “significantly inhibited” and the “total fatty acid synthesis stimulated by insulin” value was “significantly inhibited”. Also, in the data set on SZ95 sebocytes [7], the “inhibition of unsaturated fatty acid production in SZ95-SF in comparison to SZ95-S sebocytes” value is listed as “relatively more robust”.
